Measured values as given in patent US20230167073A1 (Teijin Pharma Limited, priority 2020, published 2023).

These molecules were tested against T1, Human TRPC6 (Homo sapiens, UniProt Q9Y210) (assay: Evaluation of TRPC6 channel inhibitory activity (2), HEK293 cells with stably introduced human TRPC6, OAG stimulation, FLIPR tetra (Compound Nos. 1293 to 1405)). Details: HEK293 cells with stably introduced human TRPC6, OAG 50 μM/0.5% DMSO, read-out: Inhibitory activity (pIC50 class) (converted).
T1 construct: expressed in transfected cells
T1 sequence (Q9Y210 1-931): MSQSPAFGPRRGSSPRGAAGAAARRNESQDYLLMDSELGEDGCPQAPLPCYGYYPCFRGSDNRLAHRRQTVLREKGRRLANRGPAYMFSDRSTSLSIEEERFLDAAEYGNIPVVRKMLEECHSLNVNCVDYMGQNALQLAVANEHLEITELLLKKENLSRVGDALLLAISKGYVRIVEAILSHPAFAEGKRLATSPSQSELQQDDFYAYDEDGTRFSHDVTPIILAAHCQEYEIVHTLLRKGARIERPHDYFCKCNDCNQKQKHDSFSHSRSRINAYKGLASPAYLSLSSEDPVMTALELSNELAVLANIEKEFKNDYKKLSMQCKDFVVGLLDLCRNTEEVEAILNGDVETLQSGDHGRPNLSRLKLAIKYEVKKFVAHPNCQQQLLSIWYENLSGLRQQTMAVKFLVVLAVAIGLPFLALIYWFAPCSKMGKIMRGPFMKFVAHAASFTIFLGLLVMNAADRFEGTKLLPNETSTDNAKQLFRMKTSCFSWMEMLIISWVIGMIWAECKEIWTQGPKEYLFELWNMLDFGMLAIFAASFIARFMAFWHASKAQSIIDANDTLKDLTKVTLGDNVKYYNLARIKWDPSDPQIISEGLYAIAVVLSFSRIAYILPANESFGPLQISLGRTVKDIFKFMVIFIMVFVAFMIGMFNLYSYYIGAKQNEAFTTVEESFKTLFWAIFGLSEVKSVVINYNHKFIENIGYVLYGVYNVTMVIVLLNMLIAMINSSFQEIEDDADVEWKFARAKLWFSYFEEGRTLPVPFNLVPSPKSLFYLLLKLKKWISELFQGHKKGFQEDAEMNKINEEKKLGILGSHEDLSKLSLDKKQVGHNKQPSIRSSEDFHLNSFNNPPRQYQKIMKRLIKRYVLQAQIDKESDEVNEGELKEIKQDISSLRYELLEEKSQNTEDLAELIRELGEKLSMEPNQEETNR
Format: cell-based
Description: Evaluation of TRPC6 Channel Inhibitory Activity (2) (Compound Nos. 1293 to 1405)
The activity of the TRPC6 inhibitor was measured by stimulating HEK293 cells, in which human TRPC6 was stably introduced, with OAG (1-Oleoyl-2-acetyl-sn-glycerol, Miliipore Sigma, 06754), using the FLIPR tetra system. The cells were proliferated in a humid environment at 37° C. 5% CO2 using a growth medium (DMEM (Dulbecco's Modified Eagle's Medium) high glucose containing 10% fetal bovine serum, 1×PSGlu (penicillin-streptomycin glutamine), 1×NEAA (Non-essential amino acid), sodium pyruvate and 200 μg/mL hyglomycin. For cell subculture, the cells were proliferated to 70-90% confluence, and gently washed twice with PBS (phosphate-buffered saline) free of calcium and magnesium after removing the medium. Then, the cells were incubated at 37° C. for 5 minutes after adding trypsin (3 mL), peeled off by tapping the flask at the base of the hand, 7 mL of growth medium was added to inactivate trypsin, and then the cells were resuspended. Usually, the cells were separated every 2-3 days to become a cell density of ⅕. The day before evaluation, the cells were seeded in a poly-D-lysine (PDL) coated 384-well plate using a multi-channel pipette or multidrop at a cell density of 1.0-1.5×10^4 cells/25 μL/well. After culturing overnight in a PDL-coated 384 Blackwell plate, a fluorescent dye buffer was added first to the cells and the cells were cultured at room temperature for 90-120 minutes. For preparing 10 mL of fluorescent dye buffer, 9 mL of assay buffer, 1 mL of 10×PBX signal enhancer, and 10 μL of calcium indicator were mixed. Cells treated with the compounds of each level 25 minutes before the stimulation with OAG of TRPC6 agonist were incubated. OAG solution was prepared by adding OAG to assay buffer (Ca ringer solution base: 10 mM HEPES (4-(2-hydroxyethyl)-1-piperazine-ethanesulfonic acid), 4 mM MgCl2, 120 mM NaCl, 5 mM KCl, pH=7.2 (25° C.)+0.1% BSA+2 mM CaCl2)) to give an OAG concentration of 0.2 mM/2% DMSO. The final concentration of OAG added to the cells is 50 μM/0.5% DMSO. A volume of 12.5 μL of OAG solution was added, and activation of TRPC6 channel was measured using the FLIPR tetra system assaying the change in intracellular calcium level as an index. The 180 seconds imaging frame was defined as the background signal, and the subtraction of the background signal from the raw data was used as the fluorescence peak signal. Each fluorescence peak signal is standardized using an OAG-induced signal and buffer-induced signal as 100% and 0%, respectively. The inhibition rate obtained by plotting the peak signal after the addition of the compounds of each level was analyzed by a four-parameter logistic regression to quantify the inhibition rate in the logarithm of the inverse of the effective concentration which gives a 50% inhibition rate (pIC50). The intensity was expressed by the above-mentioned symbols (+, ++, +++).
Work on `Cn1nc([C@H]2CCOC2)cc1Oc1cc(Cl)ccc1-c1ncc([C@H](F)CN)cn1` [compound 1344, (2S)-2-[2-[4-chloro-2-[2-methyl-5-[(3R)-oxolan-3-yl]pyrazol-3-yl]oxyphenyl]pyrimidin-5-yl]-2-fluoroethanamine] yielded an IC50 greater than 1000 nM. With `Cn1nc([C@H]2CCOC2)cc1Oc1cc(Cl)ccc1-c1ccc(CN)cn1` [compound 1345, [6-[4-chloro-2-[2-methyl-5-[(3R)-oxolan-3-yl]pyrazol-3-yl]oxyphenyl]pyridin-3-yl]methanamine] the IC50 was 10 to 1000 nM. `Cn1nc(C2CC2)cc1Oc1cc(Cl)ccc1-c1ccc(CN)cn1` [compound 1346, [6-[4-chloro-2-(5-cyclopropyl-2-methylpyrazol-3-yl)oxyphenyl]pyridin-3-yl]methanamine] gave an IC50 of less than 10 nM. Work on `Cn1nc(C2CC2)cc1Oc1cc(Cl)ccc1-c1ncc([C@H](F)CN)cn1` [compound 1347, (2S)-2-[2-[4-chloro-2-(5-cyclopropyl-2-methylpyrazol-3-yl)oxyphenyl]pyrimidin-5-yl]-2-fluoroethanamine] yielded an IC50 of 10 to 1000 nM. Work on `Cn1nc(C2CC2)cc1Oc1cc(Cl)ccc1-c1ncc([C@@H](F)CN)cn1` [compound 1348, (2R)-2-[2-[4-chloro-2-(5-cyclopropyl-2-methylpyrazol-3-yl)oxyphenyl]pyrimidin-5-yl]-2-fluoroethanamine] yielded an IC50 of less than 10 nM. `Cc1cc(Oc2cc(Cl)ccc2-c2ncc([C@H](O)CN)cn2)cc(N2CCOCC2)n1` [compound 1349, (1S)-2-amino-1-[2-[4-chloro-2-(2-methyl-6-morpholin-4-ylpyridin-4-yl)oxyphenyl]pyrimidin-5-yl]ethanol] gave an IC50 of 10 to 1000 nM. `Cc1cc(Oc2cc(Cl)ccc2-c2ncc([C@@H](O)CN)cn2)cc(N2CCOCC2)n1` [compound 1350, (1R)-2-amino-1-[2-[4-chloro-2-(2-methyl-6-morpholin-4-ylpyridin-4-yl)oxyphenyl]pyrimidin-5-yl]ethanol] was tested, and the IC50 was less than 10 nM. `Cn1nc(-c2ccccn2)cc1Oc1cc(Cl)cnc1-c1ncc(CN)cn1` [compound 1351, [2-[5-chloro-3-(2-methyl-5-pyridin-2-ylpyrazol-3-yl)oxypyridin-2-yl]pyrimidin-5-yl]methanamine] was tested, and the IC50 was greater than 1000 nM. With `Cn1nc([C@H]2CCOC2)cc1Oc1cc(Cl)ccc1-c1ncc([C@@H](F)CN)cn1` [compound 1352, (2R)-2-[2-[4-chloro-2-[2-methyl-5-[(3R)-oxolan-3-yl]pyrazol-3-yl]oxyphenyl]pyrimidin-5-yl]-2-fluoroethanamine] the IC50 was 10 to 1000 nM. `Cn1nc(-c2ccccn2)cc1Oc1cc(Cl)cnc1-c1ccc([C@@H](F)CN)cn1` [compound 1353, (2R)-2-[6-[5-chloro-3-(2-methyl-5-pyridin-2-ylpyrazol-3-yl)oxypyridin-2-yl]pyridin-3-yl]-2-fluoroethanamme] gave an IC50 of 10 to 1000 nM. `Cn1nc(-c2ccccn2)cc1Oc1cc(Cl)cnc1-c1ccc([C@H](F)CN)cn1` [compound 1354, (2S)-2-[6-[5-chloro-3-(2-methyl-5-pyridin-2-ylpyrazol-3-yl)oxypyridin-2-yl]pyridin-3-yl]-2-fluoroethanamine] gave an IC50 of less than 10 nM. For `Cn1nc(C2CC2)cc1Oc1cc(Cl)ccc1-c1ncc(CN)cn1` [compound 1355, [2-[4-chloro-2-(5-cyclopropyl-2-methylpyrazol-3-yl)oxyphenyl]pyrimidin-5-yl]methanamine], the IC50 was 10 to 1000 nM. For `Cn1nc([C@@H]2CCOC2)cc1Oc1cc(Cl)ccc1-c1ncc(CN)cn1` [compound 1356, [2-[4-chloro-2-[2-methyl-5-[(3S)-oxolan-3-yl]pyrazol-3-yl]oxyphenyl]pyrimidin-5-yl]methanamine], the IC50 was 10 to 1000 nM. `Cn1nc(-c2ccccn2)cc1Oc1cc(Cl)ccc1-c1ncc([C@@H](O)CN)cn1` [compound 1357, (1R)-2-amino-1-[2-[4-chloro-2-(2-methyl-5-pyridin-2-ylpyrazol-3-yl)oxyphenyl]pyrimidin-5-yl]ethanol] gave an IC50 of less than 10 nM.
